Some test systems named below: HT29 colon; HL-60(TB) leukemia; ACHN renal; OVCAR-4 ovarian; IGROV1 ovarian; MDA-MB-231 breast; M14 melanoma; SK-MEL-28 melanoma; SR leukemia; COLO 205 colon; A549 NSCLC.
Common to all, as to assay: inhibition of tumour cell growth, NCI panel, 48 h

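Assay format: 96-well plates, 48-hour exposure. The concentration for full growth arrest is given as TGI.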 Where a SMILES comes first, the peptide text is derived from it.

For `O=c1c(Sc2ncccn2)c(Sc2ncccn2)cnn1CCl`, the TGI came to 4.67 µM in the test with HT29 colon; 5 µM with HL-60(TB) leukemia; 5.45 µM with ACHN renal; 6.14 µM in the test on OVCAR-4 ovarian; 4.76 µM in the test on IGROV1 ovarian; 19 µM with MDA-MB-231 breast. The TGI turned out to be 4.76 µM with M14 melanoma; 12.7 µM in the test on SK-MEL-28 melanoma; 12.4 µM with SR leukemia; 4.79 µM in the test on COLO 205 colon; 35.5 µM in the test with A549 NSCLC.
Take `CC(=O)NC(CO)C(=O)NC(Cc1ccc(O)cc1)C(=O)NCC(N)=O` (stereo not drawn) (Ac-Ser-Tyr-Gly-NH2; configuration not given here): the TGI in the test on HT29 colon, with HL-60(TB) leukemia, in the test with ACHN renal, with OVCAR-4 ovarian, in the test on IGROV1 ovarian and with MDA-MB-231 breast was greater than 100 µM each time. In addition, the TGI in the test on M14 melanoma, in the test on SK-MEL-28 melanoma, with SR leukemia, in the test with COLO 205 colon and in the test on A549 NSCLC was greater than 100 µM throughout.
Take `Oc1ccc(Cn2c(-c3ccc(O)cc3)nc3ccccc32)cc1`: the TGI is greater than 100 µM in the test on HT29 colon; greater than 31.6 µM in the test with HL-60(TB) leukemia; greater than 100 µM in the test on ACHN renal; greater than 100 µM with OVCAR-4 ovarian; greater than 100 µM in the test on IGROV1 ovarian; greater than 100 µM with MDA-MB-231 breast. Further, the TGI in the test on M14 melanoma was greater than 100 µM; in the test on SK-MEL-28 melanoma it was greater than 100 µM; in the test on SR leukemia it was greater than 31.6 µM; with COLO 205 colon, greater than 100 µM; in the test on A549 NSCLC it was greater than 100 µM.
Turning to `CCOP(=O)(OCC)C(=C1C=C(C(C)(C)C)C(=O)C(C(C)(C)C)=C1)P(=O)(OCC)OCC`, the TGI was greater than 10 µM in the test with HT29 colon; greater than 7.36 µM with HL-60(TB) leukemia; greater than 3.16 µM in the test on ACHN renal; 3.5 µM in the test on OVCAR-4 ovarian; greater than 10 µM with IGROV1 ovarian; greater than 10 µM in the test with MDA-MB-231 breast. In addition, the TGI with M14 melanoma was 4.11 µM; in the test with SK-MEL-28 melanoma, greater than 10 µM; in the test with SR leukemia it was greater than 10 µM; in the test with COLO 205 colon, 4.2 µM; in the test on A549 NSCLC it was greater than 10 µM.
With `Cc1nc(Nc2nc3ccccc3[nH]2)[nH]c(=O)c1CCO`, the TGI was greater than 100 µM in the test with HT29 colon; greater than 100 µM in the test with HL-60(TB) leukemia; greater than 100 µM with ACHN renal; greater than 100 µM with OVCAR-4 ovarian; greater than 57 µM in the test on IGROV1 ovarian; greater than 100 µM in the test with MDA-MB-231 breast. The TGI in the test with M14 melanoma was 98.9 µM; with SK-MEL-28 melanoma, greater than 100 µM; with SR leukemia, greater than 100 µM; in the test with COLO 205 colon, greater than 100 µM; with A549 NSCLC, greater than 100 µM.
With `OC1(c2ccc3ccccc3c2)c2c(c3ccccc3c3ccccc23)C2=NCCN21` (stereo not drawn), the TGI is 8.63 µM with HT29 colon; greater than 100 µM in the test on HL-60(TB) leukemia; greater than 100 µM in the test on ACHN renal; 13.9 µM in the test on OVCAR-4 ovarian; 24 µM in the test on IGROV1 ovarian; greater than 60.6 µM with MDA-MB-231 breast. For the same compound, the TGI in the test on M14 melanoma is 4.29 µM; with SK-MEL-28 melanoma, 6.09 µM; in the test with SR leukemia it was greater than 28.4 µM; with COLO 205 colon, 4.17 µM; in the test with A549 NSCLC, greater than 69.4 µM.
Turning to `O=C(O)CO/N=C1/C(c2c(O)[nH]c3ccccc23)=Nc2ccccc21`, the TGI in the test with HT29 colon, in the test with HL-60(TB) leukemia, with ACHN renal, in the test with OVCAR-4 ovarian, in the test with IGROV1 ovarian and in the test with MDA-MB-231 breast was greater than 100 µM throughout. The TGI in the test on M14 melanoma, in the test with SK-MEL-28 melanoma, with SR leukemia, with COLO 205 colon and in the test with A549 NSCLC was greater than 100 µM each time.
Consider `O=C1c2c(ccc3c2CCCC3)CC1Cc1ccc2c(c1)CCCC2` (stereo not drawn), for which the TGI is greater than 100 µM with HT29 colon; 46.9 µM in the test with HL-60(TB) leukemia; greater than 100 µM in the test with ACHN renal; greater than 100 µM in the test on OVCAR-4 ovarian; greater than 100 µM in the test on IGROV1 ovarian; greater than 100 µM with MDA-MB-231 breast. Also, the TGI is greater than 100 µM with M14 melanoma; greater than 100 µM in the test with SK-MEL-28 melanoma; 67.6 µM in the test on SR leukemia; greater than 100 µM with COLO 205 colon; greater than 100 µM with A549 NSCLC.
As for `CCCc1cc(-c2ccc(-c3cc(CCC)c(C=O)[nH]3)s2)[nH]c1C=O`, the TGI in the test with HT29 colon was greater than 19.9 µM; in the test with HL-60(TB) leukemia, greater than 48.8 µM; in the test on ACHN renal, greater than 100 µM; in the test with OVCAR-4 ovarian it was greater than 100 µM; with IGROV1 ovarian it was greater than 100 µM; in the test with MDA-MB-231 breast it was greater than 100 µM. Besides, the TGI with M14 melanoma was greater than 100 µM; in the test on SK-MEL-28 melanoma it was greater than 100 µM; in the test with SR leukemia, greater than 100 µM; in the test with COLO 205 colon, greater than 100 µM; with A549 NSCLC, 22.7 µM.
Regarding `COc1nc(C)nc2c1ncn2Cc1ccccc1`, the TGI with HT29 colon, in the test on HL-60(TB) leukemia, with ACHN renal, in the test on OVCAR-4 ovarian, in the test with IGROV1 ovarian and in the test with MDA-MB-231 breast was greater than 100 µM in each case. Also, the TGI with M14 melanoma, in the test with SK-MEL-28 melanoma, with SR leukemia, in the test with COLO 205 colon and in the test on A549 NSCLC was greater than 100 µM throughout.
On to `O=C1Nc2ccc(Br)cc2/C1=C/C(=O)c1ccccc1`, for which the TGI in the test with HT29 colon was 3.39 µM; in the test with HL-60(TB) leukemia, greater than 29.1 µM; with ACHN renal it was 3.32 µM; in the test on OVCAR-4 ovarian it was 30.5 µM; with IGROV1 ovarian, 13.3 µM; in the test with MDA-MB-231 breast, 29.5 µM. The TGI was 28.1 µM in the test on M14 melanoma; 32.1 µM in the test with SK-MEL-28 melanoma; greater than 24.9 µM in the test on SR leukemia; 3.97 µM in the test with COLO 205 colon; greater than 62.6 µM in the test on A549 NSCLC.
In the case of `CCCN(CCC)C(=O)c1c(Cl)c2cccnc2n2c(C)cnc12`, the TGI in the test on HT29 colon was greater than 100 µM; in the test with HL-60(TB) leukemia, 71.7 µM; with ACHN renal it was greater than 100 µM; in the test with OVCAR-4 ovarian it was greater than 100 µM; in the test on IGROV1 ovarian it was greater than 100 µM; in the test on MDA-MB-231 breast, greater than 100 µM. Further, the TGI in the test on M14 melanoma, in the test on SK-MEL-28 melanoma, in the test on SR leukemia, in the test with COLO 205 colon and in the test on A549 NSCLC was greater than 100 µM each time.
Take `Cc1ccc([N+](=O)[O-])c2c(NCCC[N+](C)(C)[O-])ccnc12`: the TGI was greater than 100 µM in the test on HT29 colon; greater than 100 µM in the test on HL-60(TB) leukemia; greater than 100 µM in the test with ACHN renal; 59.2 µM with OVCAR-4 ovarian; 67.3 µM in the test on IGROV1 ovarian; greater than 100 µM with MDA-MB-231 breast. The TGI with M14 melanoma, in the test on SK-MEL-28 melanoma, in the test on SR leukemia, with COLO 205 colon and in the test with A549 NSCLC was greater than 100 µM throughout.

The record behind these values is PubChem BioAssay (NCI).
